Reference: patent publication US11358992B2, “Cell-penetrating cereblon recombinant fusion protein and use thereof” (UPPTHERA, priority 2020, dated 2022)

Tested on: MM1.S lenalidomide-resistant cells
Assay: Cell viability (EZ-Cytox) of lenalidomide-resistant multiple myeloma cells
Type: cell-based
Settings: 42 hours culture + 3 hours EZ-Cytox, absorbance 450 nm
Description: The MM1.S cell line (American Type Culture Collection, ATCC from USA) was incubated in RPMI1640 medium containing 10% FBS and 1% penicillin/streptomycin at 37° C. under 5% CO2. The Lenalidomide-resistant MM1.S cell line was established by gradually adding […] lenalidomide (Sigma-Aldrich, Cat No. D2438) from 5 μM to 200 μM to the cell line culture.
In order to evaluate cytotoxic effects of the 30Kcα-CRBN recombinant fusion protein, 1×104 MM1.S lenalidomide-resistant cells were seeded in each well of a 96 well plate. 200 μM of lenalidomide and/or 3 μM of 30Kcα-CRBN recombinant fusion protein were added to each well according to the experimental group. The total medium volume of each well was adjusted to 100 μL. Then, each medium was cultured for 42 hours, and 10 μl of EZ-Cytox (Cat. No. EZ-3000 from Dogen) was added to each well, followed by incubation for 3 hours. Thereafter, absorbance was measured at 450 nm using a microplate reader (Clarostar™ from BMGlabtech), and a cell viability (%) was calculated by using the measured absorbance and shown in FIG. 2.

Molecule: Nc1cccc2c1CN(C1CCC(=O)NC1=O)C2=O (centres unmarked) [lenalidomide]
- cell viability (lenalidomide 200 μM alone, without 30Kcα-CRBN fusion protein, FIG. 2A): could not be reduced

B1: 30Kcα-CRBN recombinant fusion protein: Fusion recombinant protein of 30Kc19 α-helix domain (30Kc19α, SEQ ID NO: 1) linked N-terminally to human cereblon (SEQ ID NO: 2) (protein)
chain: ADSDVPNDILEEQLYNSVVVADYDSAVEKSKHLYEEKKSEVITNVVNKLIRNNKMNCMEYAYQLWLQGSKDIVRDCFPVEFRLIFAENMAGEGDQQDAAHNMGNHLPLLPAESEEEDEMEVEDQDSKEAKKPNIINFDTSLPTSHTYLGADMEEFHGRTLHDDDSCQVIPVLPQVMMILIPGQTLPLQLFHPQEVSMVRNLIQKDRTFAVLAYSNVQEREAQFGTTAEIYAYREEQDFGIEIVKVKAIGRQRFKVLELRTQSDGIQQAKVQILPECVLPSTMSAVQLESLNKCQIFPSKPVSREDQCSYKWWQKYQKRKFHCANLTSWPRWLYSLYDAETLMDRIKKQLREWDENLKDDSLPSNPIDFSYRVAACLPIDDVLRIQLLKIGSAIQRLRCELDIMNKCTSLCCKQCQETEITTKNEIFSLSLCGPMAAYVNPHGYVHETLTVYKACNLNLIGRPSTEHSWFPGYAWTVAQCKICASHIGWKFTATKKDMSPQKFWGLTRSALLPTIPDTEDEISPDKVILCL
modifications: 30Kc alpha-CRBN
- reduction of cell viability compared with the control (3 μM 30Kcα-CRBN fusion protein in combination with 200 μM lenalidomide, FIG. 2B): ~50%
